Experiments:
Test in all cases: biochemical
[1] = molecular target: FGR (Homo sapiens, UniProt P09769)
Summary of the method: (§1)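 Reactions at room temperature in HEPES buffer (20 mM, pH 7.5, 0.01% Triton X-100, 2 mM DTT) lasted 1 or 5 h depending on kinase, with substrate peptide and ATP-metal. Phosphorylation read by electrophoretic mobility shift or IMAP polarization; kinase activity computed as P/(P + S).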

[2] = molecular target: T1, PDGFRα(T674I) (Homo sapiens, UniProt P16234, T674I)
T1 construct: gene PDGFRA
Summary of the method: as §1

[3] = molecular target: FLT4 (Homo sapiens, UniProt P35916)
Summary of the method: as §1

[4] = molecular target: ROCK1 (Homo sapiens, UniProt Q13464)
Summary of the method: as §1

[5] = molecular target: EPHB4 (Homo sapiens, UniProt P54760)
Summary of the method: as §1

[6] = molecular target: KIT(D816V) (Homo sapiens, UniProt P10721, D816V)
Summary of the method: as §1

[7] = molecular target: PIM2 (Homo sapiens, UniProt Q9P1W9)
Summary of the method: as §1

[8] = molecular target: TBK1 (Homo sapiens, UniProt Q9UHD2)
Summary of the method: as §1

[9] = molecular target: T2, MSSK1 (Homo sapiens, UniProt Q9UPE1)
T2 construct: gene SRPK3
Summary of the method: as §1

[10] = molecular target: T3, Erk1 (Homo sapiens, UniProt P27361)
T3 construct: gene MAPK3
Summary of the method: as §1

[11] = molecular target: T4, FYN(isoform a) (Homo sapiens, UniProt P06241)
T4 construct: isoform a
Summary of the method: as §1

[12] = molecular target: T5, PKD1 (Homo sapiens, UniProt Q15139)
T5 construct: gene PRKD1
Summary of the method: as §1

[13] = molecular target: T6, CK2α2/β (Homo sapiens, UniProt P19784)
T6 construct: gene CSNK2A2
Summary of the method: as §1

[14] = molecular target: PAK1 (Homo sapiens, UniProt Q13153)
Summary of the method: as §1

[15] = molecular target: PAK6 (Homo sapiens, UniProt Q9NQU5)
Summary of the method: as §1

[16] = molecular target: Haspin (Homo sapiens, UniProt Q8TF76)
Summary of the method: as §1

[17] = molecular target: T7, CK2α1/β (Homo sapiens, UniProt P68400)
T7 construct: gene CSNK2A1
Summary of the method: as §1

[18] = molecular target: T8, PDHK2 (Homo sapiens, UniProt Q15119)
T8 construct: gene PDK2
Summary of the method: as §1

[19] = molecular target: MARK3 (Homo sapiens, UniProt P27448)
Summary of the method: as §1

[20] = molecular target: TEC (Homo sapiens, UniProt P42680)
Summary of the method: as §1

[21] = molecular target: T9, p38δ (Homo sapiens, UniProt O15264)
T9 construct: gene MAPK13
Summary of the method: as §1

[22] = molecular target: EGFR (Homo sapiens, UniProt P00533)
Summary of the method: as §1

[23] = molecular target: MET(Y1235D) (Homo sapiens, UniProt P08581, Y1235D)
Summary of the method: as §1

[24] = molecular target: T10, MRCKβ (Homo sapiens, UniProt Q9Y5S2)
T10 construct: gene CDC42BPB
Summary of the method: as §1

[25] = molecular target: SPHK1 (Homo sapiens, UniProt Q9NYA1)
Summary of the method: as §1

[26] = molecular target: T11, CK1ε (Homo sapiens, UniProt P49674)
T11 construct: gene CSNK1E
Summary of the method: as §1

[27] = molecular target: KDR (Homo sapiens, UniProt P35968)
Summary of the method: as §1

[28] = molecular target: T12, CK1γ2 (Homo sapiens, UniProt P78368)
T12 construct: gene CSNK1G2
Summary of the method: as §1

[29] = molecular target: T13, SIK (Homo sapiens, UniProt P57059)
T13 construct: gene SIK1
Summary of the method: as §1

[30] = molecular target: T14, PKCα (Homo sapiens, UniProt P17252)
T14 construct: gene PRKCA
Summary of the method: as §1

[31] = molecular target: T15, TRKA (Homo sapiens, UniProt P04629)
T15 construct: gene NTRK1
Summary of the method: as §1

T3 sequence (P27361 whole entry): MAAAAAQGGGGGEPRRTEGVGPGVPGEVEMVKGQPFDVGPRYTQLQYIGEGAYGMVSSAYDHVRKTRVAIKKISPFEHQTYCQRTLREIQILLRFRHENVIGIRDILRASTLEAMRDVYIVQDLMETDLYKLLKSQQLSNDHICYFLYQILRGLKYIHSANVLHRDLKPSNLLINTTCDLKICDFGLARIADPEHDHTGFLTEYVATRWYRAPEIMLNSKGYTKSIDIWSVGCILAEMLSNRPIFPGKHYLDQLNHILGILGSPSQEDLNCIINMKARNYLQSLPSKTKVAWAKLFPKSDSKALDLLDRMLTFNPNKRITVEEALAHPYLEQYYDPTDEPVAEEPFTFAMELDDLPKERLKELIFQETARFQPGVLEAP
TBK1, sequence (Q9UHD2 whole entry): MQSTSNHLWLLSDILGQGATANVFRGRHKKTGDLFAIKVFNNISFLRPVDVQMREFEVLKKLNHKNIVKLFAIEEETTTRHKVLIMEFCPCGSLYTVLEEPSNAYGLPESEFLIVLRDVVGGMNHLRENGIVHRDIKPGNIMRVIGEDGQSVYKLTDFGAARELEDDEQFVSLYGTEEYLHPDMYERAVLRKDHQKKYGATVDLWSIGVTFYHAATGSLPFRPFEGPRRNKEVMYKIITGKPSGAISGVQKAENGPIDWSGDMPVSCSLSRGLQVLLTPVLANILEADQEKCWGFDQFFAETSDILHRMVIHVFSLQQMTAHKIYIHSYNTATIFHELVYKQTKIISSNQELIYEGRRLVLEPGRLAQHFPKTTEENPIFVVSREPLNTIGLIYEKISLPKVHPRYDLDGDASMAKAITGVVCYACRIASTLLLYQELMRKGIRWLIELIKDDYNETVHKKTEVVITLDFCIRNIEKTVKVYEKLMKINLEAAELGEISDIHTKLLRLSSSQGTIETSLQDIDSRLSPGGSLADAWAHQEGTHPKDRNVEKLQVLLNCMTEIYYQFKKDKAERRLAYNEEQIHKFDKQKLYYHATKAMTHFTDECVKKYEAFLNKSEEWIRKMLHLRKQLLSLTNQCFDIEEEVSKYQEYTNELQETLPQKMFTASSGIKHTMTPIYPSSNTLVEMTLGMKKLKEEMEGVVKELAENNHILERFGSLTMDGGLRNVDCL
Haspin, sequence (Q8TF76 whole entry): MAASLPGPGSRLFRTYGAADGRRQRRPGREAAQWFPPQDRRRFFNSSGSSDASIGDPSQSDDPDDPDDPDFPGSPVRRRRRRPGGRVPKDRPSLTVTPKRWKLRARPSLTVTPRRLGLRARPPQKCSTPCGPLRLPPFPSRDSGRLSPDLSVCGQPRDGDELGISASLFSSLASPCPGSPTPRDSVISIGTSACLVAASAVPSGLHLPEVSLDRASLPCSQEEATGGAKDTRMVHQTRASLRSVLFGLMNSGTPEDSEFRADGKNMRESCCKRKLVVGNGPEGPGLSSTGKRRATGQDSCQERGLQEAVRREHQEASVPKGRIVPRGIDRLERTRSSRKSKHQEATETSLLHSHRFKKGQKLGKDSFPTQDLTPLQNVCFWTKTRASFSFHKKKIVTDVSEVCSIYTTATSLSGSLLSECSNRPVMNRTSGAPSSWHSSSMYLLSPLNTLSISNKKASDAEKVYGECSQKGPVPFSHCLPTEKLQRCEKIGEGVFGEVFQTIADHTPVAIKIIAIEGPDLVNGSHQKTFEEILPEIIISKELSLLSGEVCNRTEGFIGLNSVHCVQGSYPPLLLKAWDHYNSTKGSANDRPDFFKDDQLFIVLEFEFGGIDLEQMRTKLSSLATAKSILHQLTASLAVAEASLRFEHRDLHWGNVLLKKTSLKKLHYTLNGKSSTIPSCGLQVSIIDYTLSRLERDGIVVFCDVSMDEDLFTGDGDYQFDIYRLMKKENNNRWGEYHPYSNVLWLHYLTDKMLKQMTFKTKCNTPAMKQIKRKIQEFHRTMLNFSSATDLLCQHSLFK
FGR, sequence (P09769 whole entry): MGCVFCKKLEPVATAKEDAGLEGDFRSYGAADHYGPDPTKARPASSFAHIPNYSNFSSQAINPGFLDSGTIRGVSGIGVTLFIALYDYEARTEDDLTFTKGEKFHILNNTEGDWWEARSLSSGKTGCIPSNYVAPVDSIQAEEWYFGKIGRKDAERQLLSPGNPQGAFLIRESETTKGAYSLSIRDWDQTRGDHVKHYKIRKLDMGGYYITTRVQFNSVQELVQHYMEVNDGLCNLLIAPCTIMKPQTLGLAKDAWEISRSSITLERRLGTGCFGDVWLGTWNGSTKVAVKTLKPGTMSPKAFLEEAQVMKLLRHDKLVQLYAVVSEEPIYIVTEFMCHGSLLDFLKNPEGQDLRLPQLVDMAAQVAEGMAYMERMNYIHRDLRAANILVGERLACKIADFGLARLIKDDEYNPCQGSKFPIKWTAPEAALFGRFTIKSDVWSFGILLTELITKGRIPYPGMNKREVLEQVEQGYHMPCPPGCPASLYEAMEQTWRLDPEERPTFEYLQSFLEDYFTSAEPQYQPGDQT
PAK6, sequence (Q9NQU5 whole entry): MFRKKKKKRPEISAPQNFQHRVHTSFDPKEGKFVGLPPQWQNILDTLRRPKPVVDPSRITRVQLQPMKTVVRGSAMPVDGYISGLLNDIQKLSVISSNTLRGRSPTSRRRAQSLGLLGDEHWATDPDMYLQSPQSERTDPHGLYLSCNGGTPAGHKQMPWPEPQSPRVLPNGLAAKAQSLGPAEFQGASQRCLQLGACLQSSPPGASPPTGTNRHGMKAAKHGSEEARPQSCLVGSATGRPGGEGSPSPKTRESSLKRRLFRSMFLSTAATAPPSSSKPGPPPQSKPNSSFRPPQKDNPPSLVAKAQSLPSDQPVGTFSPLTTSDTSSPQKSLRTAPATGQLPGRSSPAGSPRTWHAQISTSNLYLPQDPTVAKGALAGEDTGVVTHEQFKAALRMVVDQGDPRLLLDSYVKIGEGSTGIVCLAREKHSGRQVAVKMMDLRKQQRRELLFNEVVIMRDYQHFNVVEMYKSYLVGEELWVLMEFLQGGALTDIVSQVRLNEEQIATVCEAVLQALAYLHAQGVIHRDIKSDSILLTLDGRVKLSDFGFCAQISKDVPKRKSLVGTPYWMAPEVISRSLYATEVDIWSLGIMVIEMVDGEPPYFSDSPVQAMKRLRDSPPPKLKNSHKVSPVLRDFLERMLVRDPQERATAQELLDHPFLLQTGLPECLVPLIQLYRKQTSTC
T12 sequence (P78368 whole entry): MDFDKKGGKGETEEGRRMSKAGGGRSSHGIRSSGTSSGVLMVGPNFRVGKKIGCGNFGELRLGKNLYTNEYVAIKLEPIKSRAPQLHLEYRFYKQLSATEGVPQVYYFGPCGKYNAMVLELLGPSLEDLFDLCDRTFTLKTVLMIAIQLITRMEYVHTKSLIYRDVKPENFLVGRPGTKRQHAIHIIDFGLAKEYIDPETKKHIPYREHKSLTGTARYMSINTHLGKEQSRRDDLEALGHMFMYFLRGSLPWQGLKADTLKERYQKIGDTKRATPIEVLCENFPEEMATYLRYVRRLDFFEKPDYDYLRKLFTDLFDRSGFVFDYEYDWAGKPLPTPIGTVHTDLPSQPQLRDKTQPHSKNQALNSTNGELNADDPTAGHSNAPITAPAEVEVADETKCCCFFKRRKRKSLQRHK
FLT4, sequence (P35916 whole entry): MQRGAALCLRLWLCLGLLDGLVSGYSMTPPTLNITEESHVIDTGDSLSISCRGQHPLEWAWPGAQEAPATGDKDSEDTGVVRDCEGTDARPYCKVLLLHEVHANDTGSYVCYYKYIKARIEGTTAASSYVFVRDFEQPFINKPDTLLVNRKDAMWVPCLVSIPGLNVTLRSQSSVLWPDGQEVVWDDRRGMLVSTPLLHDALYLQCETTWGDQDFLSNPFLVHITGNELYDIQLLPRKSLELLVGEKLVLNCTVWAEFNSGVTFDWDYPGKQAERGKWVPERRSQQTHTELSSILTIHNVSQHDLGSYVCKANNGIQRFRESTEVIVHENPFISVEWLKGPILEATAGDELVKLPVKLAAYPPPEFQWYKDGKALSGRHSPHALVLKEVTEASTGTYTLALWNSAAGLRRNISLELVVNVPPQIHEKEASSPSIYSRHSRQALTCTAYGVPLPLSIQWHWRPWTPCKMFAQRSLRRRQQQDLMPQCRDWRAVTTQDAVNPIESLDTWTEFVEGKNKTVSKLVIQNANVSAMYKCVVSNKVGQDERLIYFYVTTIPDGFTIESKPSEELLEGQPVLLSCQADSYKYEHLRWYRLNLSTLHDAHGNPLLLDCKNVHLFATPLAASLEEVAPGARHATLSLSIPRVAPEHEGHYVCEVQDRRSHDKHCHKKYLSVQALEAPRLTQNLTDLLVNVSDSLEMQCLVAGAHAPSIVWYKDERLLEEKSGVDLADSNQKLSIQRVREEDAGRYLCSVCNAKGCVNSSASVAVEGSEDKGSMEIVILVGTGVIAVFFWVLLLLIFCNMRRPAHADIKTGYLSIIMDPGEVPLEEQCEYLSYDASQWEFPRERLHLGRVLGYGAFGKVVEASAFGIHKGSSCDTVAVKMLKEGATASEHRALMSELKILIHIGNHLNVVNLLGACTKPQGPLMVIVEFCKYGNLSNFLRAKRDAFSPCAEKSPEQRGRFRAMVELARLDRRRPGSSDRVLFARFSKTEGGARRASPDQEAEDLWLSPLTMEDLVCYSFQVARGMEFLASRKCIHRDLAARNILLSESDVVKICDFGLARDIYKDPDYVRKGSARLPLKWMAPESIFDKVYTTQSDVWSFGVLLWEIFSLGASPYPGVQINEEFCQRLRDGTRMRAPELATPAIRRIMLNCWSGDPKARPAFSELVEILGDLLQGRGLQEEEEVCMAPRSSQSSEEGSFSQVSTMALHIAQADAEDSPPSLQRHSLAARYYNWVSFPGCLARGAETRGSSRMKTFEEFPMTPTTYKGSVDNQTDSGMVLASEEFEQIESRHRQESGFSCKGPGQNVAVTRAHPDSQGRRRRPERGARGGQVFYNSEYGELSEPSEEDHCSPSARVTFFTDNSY

## c1cc(-c2ccc3[nH]ncc3c2)ccn1 [TG693, 5-(4-pyridinyl)-1H-indazole]
[1]
  inhibition at 1 µM: -5.9%
[2]
  inhibition at 1 µM: 7.6%
[3]
  inhibition at 1 µM: -0.3%
[4]
  inhibition at 1 µM: 27.6%
[5]
  inhibition at 1 µM: -1.5%
[6]
  inhibition at 1 µM: -1.1%
[7]
  inhibition at 1 µM: -3.5%
[8]
  inhibition at 1 µM: 5.8%
[9]
  inhibition at 1 µM: -7.3%
[10]
  inhibition at 1 µM: 1.4%
[11]
  inhibition at 1 µM: -0.7%
[12]
  inhibition at 1 µM: -15.8%
[13]
  inhibition at 1 µM: 14.6%
[14]
  inhibition at 1 µM: -3.8%
[15]
  inhibition at 1 µM: -4.3%
[16]
  inhibition at 1 µM: 92.8%
[17]
  inhibition at 1 µM: 3.5%
[18]
  inhibition at 1 µM: -0.8%
[19]
  inhibition at 1 µM: 15.5%
[20]
  inhibition at 1 µM: -0.4%
[21]
  inhibition at 1 µM: -0.7%
[22]
  inhibition at 1 µM: -10.7%
[23]
  inhibition at 1 µM: -2%
[24]
  inhibition at 1 µM: -7.3%
[25]
  inhibition at 1 µM: -2.3%
[26]
  inhibition at 1 µM: 8%
[27]
  inhibition at 1 µM: 0.1%
[28]
  inhibition at 1 µM: -3.2%
[29]
  inhibition at 1 µM: 3.2%
[30]
  inhibition at 1 µM: -5.4%
[31]
  inhibition at 1 µM: 5.1%

From paper PMC5448077, “Development of an orally available inhibitor of CLK1 for skipping a mutated dystrophin exon in Duchenne muscular dystrophy” (Scientific Reports, 2017)
